According to ChEMBL document CHEMBL1145390, “Synthesis and preliminary biological characterization of new semisynthetic derivatives of ramoplanin” (J Med Chem, 2007):
≈ marks a conversion by molar mass, not a printed value. Numbered stars: 1 amine (or outer) side, 2 acyl side, 3 side chain; on linkers, the order of the positions; unused ones are H or OH. Bridge positions count the residues as written; N and C are the ends. Square brackets hold non-standard residues; d marks the D form. Peptide text beside a SMILES is read from it. * marks the point of attachment. Hpg(αMan(1-2)αMan) = N[C@H](C(=O)O)c1ccc(O[C@H]2O[C@H](CO)[C@@H](O)[C@H](O)[C@@H]2O[C@H]2O[C@H](CO)[C@@H](O)[C@H](O)[C@@H]2O)cc1; Octa(2Z,4E)dienoyl(7-Me) = CC(C)C/C=C/C=C\C(=O)*; X1 = NC(=O)[C@@H](O[*:3])[C@H](N[*:1])C(=O)[*:2]; Hpg(3-Cl) = N[C@H](C(=O)O)c1ccc(O)c(Cl)c1; d(aThr) = C[C@@H](O)[C@@H](N)C(=O)O; dHpg = N[C@@H](C(=O)O)c1ccc(O)cc1; Hpg = N[C@H](C(=O)O)c1ccc(O)cc1; aThr = C[C@H](O)[C@H](N)C(=O)O; dOrn = NCCC[C@@H](N)C(=O)O

Experiments:
[1] = tested on: Enterococcus faecalis; assay: Antibacterial activity against vancomycin-resistant Enterococcus faecalis in presence of 30% bovine serum after 24 hrs by broth microdilution method; assay type: functional
[2] = tested on: Streptococcus pyogenes; assay: Antibacterial activity against Streptococcus pyogenes C203 after 24 hrs by broth microdilution method; assay type: functional; details: C203, 24 h, read-out: MIC
[3] = tested on: Enterococcus faecalis; assay: Antibacterial activity against Enterococcus faecalis after 24 hrs by broth microdilution method; assay type: functional; details: read-out: MIC
[4] = tested on: Enterococcus faecium; assay: Antibacterial activity against Enterococcus faecium after 24 hrs by broth microdilution method; assay type: functional; details: read-out: MIC
[5] = tested on: Staphylococcus aureus; assay: Antibacterial activity against methicillin-resistant and vancomycin-intermediate resistant Staphylococcus aureus clinical isolate after 24 hrs by broth microdilution method; assay type: functional; details: read-out: MIC
[6] = tested on: Staphylococcus aureus; assay: Antibacterial activity against vancomycin-intermediate resistant Staphylococcus aureus clinical isolate after 24 hrs by broth microdilution method; assay type: functional
[7] = tested on: Enterococcus faecium; assay: Antibacterial activity against vancomycin A-resistant Enterococcus faecium clinical isolate in presence of 30% bovine serum after 24 hrs by broth microdilution method; assay type: functional
[8] = Toxicity assessed as hemolysis in erythrocytes at 100 mg/L; assay type: cell-based, Erythrocyte; details: human, read-out: Activity
[9] = tested on: Staphylococcus aureus; assay: Antibacterial activity against Staphylococcus aureus Smith in presence of 30% bovine serum after 24 hrs by broth microdilution method; assay type: functional
[10] = Toxicity assessed as hemolysis in erythrocytes at 200 mg/L; assay type: cell-based, Erythrocyte; details: human, read-out: Activity
[11] = tested on: Staphylococcus aureus; assay: Antibacterial activity against methicillin-resistant Staphylococcus aureus clinical isolate after 24 hrs by broth microdilution method; assay type: functional; details: read-out: MIC
[12] = tested on: Escherichia coli; assay: Antibacterial activity against Escherichia coli SKF-12140 after 24 hrs by broth microdilution method; assay type: functional; details: read-out: MIC
[13] = Toxicity assessed as hemolysis in erythrocytes at 400 mg/L; assay type: cell-based, Erythrocyte; details: human, read-out: Activity
[14] = tested on: Staphylococcus aureus; assay: Antibacterial activity against Staphylococcus aureus Smith after 24 hrs by broth microdilution method; assay type: functional; details: read-out: MIC
[15] = tested on: Candida albicans; assay: Antifungal activity against Candida albicans SKF-2270 after 24 hrs by broth microdilution method; assay type: functional; details: read-out: MIC
[16] = tested on: Staphylococcus aureus; assay: Antibacterial activity against vancomycin-intermediate resistant Staphylococcus aureus clinical isolate in presence of 30% bovine serum after 24 hrs by broth microdilution method; assay type: functional
[17] = tested on: Enterococcus faecalis; assay: Antibacterial activity against vancomycin A-resistant Enterococcus faecalis after 24 hrs by broth microdilution method; assay type: functional; details: read-out: MIC
[18] = tested on: Enterococcus faecium; assay: Antibacterial activity against vancomycin A-resistant Enterococcus faecium clinical isolate after 24 hrs by broth microdilution method; assay type: functional; details: read-out: MIC
[19] = Toxicity assessed as hemolysis in erythrocytes at 90 mg/L; assay type: cell-based, Erythrocyte; details: human, erythrocytes; read-out: Activity
[20] = Toxicity assessed as hemolysis in erythrocytes at 180 mg/L; assay type: cell-based, Erythrocyte; details: human, erythrocytes; read-out: Activity

Row | Compound | MIC [1] | MIC [2] | MIC [3] | MIC [4] | MIC [5] | MIC [6] | MIC [7] | hemolysis at 100 mg/L [8] | MIC [9] | hemolysis at 200 mg/L [10] | MIC [11] | MIC [12] | hemolysis at 400 mg/L [13] | MIC [14] | MIC [15] | MIC [16] | MIC [17] | MIC [18] | hemolysis at 90 mg/L [19] | hemolysis at 180 mg/L [20]
1 | CCC/C=C/C=C\CC(=O)N[C@@H](CC(N)=O)C(=O)NC[C@@H]1C(=O)N[C@H](c2ccc(O)cc2)C(=O)N[C@H](CCCN)C(=O)N[C@H](C(C)C)C(=O)N[C@@H](c2ccc(O)cc2)C(=O)N[C@H](c2ccc(O)cc2)C(=O)N[C@@H]([C@@H](C)O)C(=O)N[C@@H](Cc2ccccc2)C(=O)N[C@H](CCCN)C(=O)N[C@@H](c2ccc(O[C@H]3O[C@H](CO)[C@@H](O)[C@H](O)[C@@H]3O[C@H]3O[C@H](CO)[C@@H](O)[C@H](O)[C@@H]3O)cc2)C(=O)N[C@H]([C@@H](C)O)C(=O)N[C@@H](c2ccc(O)cc2)C(=O)NCC(=O)N[C@@H](CC(C)C)C(=O)N[C@H](C)C(=O)N[C@@H](c2ccc(O)c(Cl)c2)C(=O)O[C@@H]1C(N)=O | 0.5 µg/mL | ≤ 0.125 µg/mL | ≤ 0.125 µg/mL | ≤ 0.125 µg/mL | 1 µg/mL (≈ 0.39 µM) | 0.5 µg/mL (≈ 0.195 µM) | 1 µg/mL | 65% | 0.5 µg/mL | 83% | ≤ 0.125 µg/mL | > 128 µg/mL | 94% | ≤ 0.125 µg/mL | > 128 µg/mL | 2 µg/mL | – | – | – | –
2 | CC(C)/C=C/C=C/CC(=O)N[C@@H](CC(N)=O)C(=O)NC[C@@H]1C(=O)N[C@H](c2ccc(O)cc2)C(=O)N[C@H](CCCN)C(=O)N[C@H](C(C)C)C(=O)N[C@@H](c2ccc(O)cc2)C(=O)N[C@H](c2ccc(O)cc2)C(=O)N[C@@H]([C@@H](C)O)C(=O)N[C@@H](Cc2ccccc2)C(=O)N[C@H](CCCN)C(=O)N[C@@H](c2ccc(O[C@H]3O[C@H](CO)[C@@H](O)[C@H](O)[C@@H]3O[C@H]3O[C@H](CO)[C@@H](O)[C@H](O)[C@@H]3O)cc2)C(=O)N[C@H]([C@@H](C)O)C(=O)N[C@@H](c2ccc(O)cc2)C(=O)NCC(=O)N[C@@H](CC(C)C)C(=O)N[C@H](C)C(=O)N[C@@H](c2ccc(O)c(Cl)c2)C(=O)O[C@@H]1C(N)=O | 1 µg/mL | ≤ 0.125 µg/mL | 0.25 µg/mL (≈ 0.0974 µM) | 0.25 µg/mL (≈ 0.0974 µM) | 2 µg/mL (≈ 0.779 µM) | 1 µg/mL (≈ 0.39 µM) | 1 µg/mL | 30% | 1 µg/mL | 29% | 0.25 µg/mL (≈ 0.0974 µM) | > 128 µg/mL | – | ≤ 0.125 µg/mL | > 128 µg/mL | 4 µg/mL | ≤ 0.125 µg/mL | ≤ 0.125 µg/mL | – | –
3 | CCc1ccccc1CC(=O)N[C@@H](CC(N)=O)C(=O)N[C@@H]1C(=O)N[C@H](c2ccc(O)cc2)C(=O)N[C@H](CCCN)C(=O)N[C@H]([C@@H](C)O)C(=O)N[C@@H](c2ccc(O)cc2)C(=O)N[C@H](c2ccc(O)cc2)C(=O)N[C@@H]([C@H](C)O)C(=O)N[C@@H](Cc2ccccc2)C(=O)N[C@H](CCCN)C(=O)N[C@@H](c2ccc(O[C@H]3O[C@H](CO)[C@@H](O)[C@H](O)[C@@H]3O[C@H]3O[C@H](CO)[C@@H](O)[C@H](O)[C@@H]3O)cc2)C(=O)N[C@H]([C@@H](C)O)C(=O)N[C@@H](c2ccc(O)cc2)C(=O)NCC(=O)N[C@@H](CC(C)C)C(=O)N[C@H](C)C(=O)N[C@@H](c2ccc(O)c(Cl)c2)C(=O)O[C@@H]1C(N)=O | 2 µg/mL | ≤ 0.125 µg/mL | 0.5 µg/mL (≈ 0.195 µM) | ≤ 0.06 µg/mL | 2 µg/mL (≈ 0.78 µM) | 1 µg/mL (≈ 0.39 µM) | 4 µg/mL | – | 1 µg/mL | – | 0.5 µg/mL (≈ 0.195 µM) | > 128 µg/mL | – | 0.125 µg/mL (≈ 0.0488 µM) | > 128 µg/mL | 4 µg/mL | 0.5 µg/mL (≈ 0.195 µM) | 0.5 µg/mL (≈ 0.195 µM) | – | –
4 | CC(C)C/C=C/C=C\C(=O)N[C@@H](CC(N)=O)C(=O)N[C@@H]1C(=O)N[C@H](c2ccc(O)cc2)C(=O)N[C@H](CCCN)C(=O)N[C@H]([C@@H](C)O)C(=O)N[C@@H](c2ccc(O)cc2)C(=O)N[C@H](c2ccc(O)cc2)C(=O)N[C@@H]([C@H](C)O)C(=O)N[C@@H](Cc2ccccc2)C(=O)N[C@H](CCCN)C(=O)N[C@@H](c2ccc(O[C@H]3O[C@H](CO)[C@@H](O)[C@H](O)[C@@H]3O[C@H]3O[C@H](CO)[C@@H](O)[C@H](O)[C@@H]3O)cc2)C(=O)N[C@H]([C@@H](C)O)C(=O)N[C@@H](c2ccc(O)cc2)C(=O)NCC(=O)N[C@@H](CC(C)C)C(=O)N[C@H](C)C(=O)N[C@@H](c2ccc(O)c(Cl)c2)C(=O)O[C@@H]1C(N)=O [RAMOPLANIN A2] ({Octa(2Z,4E)dienoyl(7-Me)}-N[X1][dHpg][dOrn][d(aThr)][Hpg][dHpg][aThr]F[dOrn][Hpg(αMan(1-2)αMan)][d(aThr)][Hpg]GL[dA][Hpg(3-Cl)]; ester 2-C) | – | < 0.03 µg/mL | < 0.03 µg/mL | < 0.03 µg/mL | 1 µg/mL (≈ 0.392 µM) | 0.25 µg/mL (≈ 0.0979 µM) | – | 87% | – | – | 0.06 µg/mL (≈ 0.0235 µM) | < 32 µg/mL | – | < 0.03 µg/mL | < 32 µg/mL | – | – | – | 81% | 79%
